This is an account of results in US12606543B2, “Indole derivatives as serotonergic agents useful for the treatment of disorders related thereto” (priority 2023, dated 2026).

SMILES strings stand for the structures. Read-outs that look alike come from different tables or passages of the source.

Data set [1] deals with human 5-HT2B receptor (Homo sapiens, UniProt P41595). Description: Human 5-HT2B positive allosteric modulator (PAM) assay. The data set is classed as cell-based. Also on record: expressed in transfected cells; host or cells: HEK293. To be noted: for Emax (% of serotonin): PAM mode, agonist at EC20, relative to maximum response of serotonin. The protocol:
Compound potency (EC50) and efficacy (Max response) against the human 5-HT2B receptor in stably transfected HEK293 cells were determined in a GPCR cell-based assay.
For Positive Allosteric Modulator determination, cells were pre-incubated with sample followed by EC20 addition. Intermediate dilution of sample stocks were performed to generate 5× samples in assay buffer. 5 μL of 5× samples were added to cells and incubated at 37° C. for 10 mins. 5 μL of agonist at 6×EC20 concentration was added and cells were incubated at 37° C. for 120 mins. Final assay vehicle concentration was 1%. The results are expressed as percent efficacy relative to the maximum response of the control ligand (serotonin) in Table 14.
Compound potency (EC50) and efficacy (Max response) against the human 5-HT2B receptor in stably transfected HEK293 cells was determined in a GPCR cell-based assay.
For Positive Allosteric Modulator determination, cells were pre-incubated with sample followed by EC20 addition. Intermediate dilution of sample stocks was performed to generate 5× samples in assay buffer. 5 μL of 5× samples were added to cells and incubated at 37° C. for 10 mins. 5 μL of agonist at 6×EC20 concentration was added and the cells were incubated at 37° C. for 120 mins. The final assay vehicle concentration was 1%. The results are expressed as percent efficacy relative to the maximum response of the control ligand (serotonin) in Table 64.

Data set [2] in a line: Liver microsomes stability, rat. Type of data set: in vitro ADME. To be noted: for half-life at 2 μM / microsomal CLint at 2 μM / CLint scaled at 2 μM: male; for CLint scaled at 2 μM: read-out: Scaled-up CLint. As for the experimental part: The objective of this study was to estimate in vitro metabolic stability of exemplary compounds of Formula (I) or a pharmaceutically acceptable salt, solvate, and/or prodrug thereof in pooled human, male rat, and male mouse liver microsomes. The concentrations of compounds in reaction systems were evaluated by LC-MS/MS for estimating the stability in pooled human, male rat, and male mouse liver microsomes. The in vitro intrinsic clearances of test compounds were determined as well.
A master solution in the “Incubation Plate” containing phosphate buffer, ultra-pure H2O, MgCl2 solution and liver microsomes was made according to Table 33. The mixture was pre-warmed at 37° C. water bath for 5 minutes.
40 μL of 10 mM nicotinamide adenine dinucleotide phosphate (NADPH) solution was added to each well. The final concentration of NADPH was 1 mM. The negative control samples were prepared by replacing NADPH with 40 μL of ultra-pure H2O. Samples were prepared in duplicate. Negative controls were prepared in singlet.
The reaction was started with the addition of 4 μL of 200 μM exemplary test compounds of the disclosure or control compounds to each master solution to get the final concentration of 2 μM. This study was performed in duplicate.
Aliquots of 50 μL were taken from the reaction solution at 0, 15, 30, 45, and 60 minutes. The reaction solutions were stopped by the addition of 4 volumes of cold methanol with IS (100 nM alprazolam, 200 nM imipramine, 200 nM labetalol, and 2 μM ketoprofen). Samples were centrifuged at 3,220 g for 40 minutes. Aliquot of 90 μL of the supernatant was mixed with 90 μL of ultra-pure H2O and then was used for LC-MS/MS analysis.
LC/MS analysis was performed for all samples from this study using a Shimadzu liquid chromatograph separation system equipped with degasser DGU-20A5R; solvent delivery unit LC-30AD; system controller SIL-30AC; column oven CTO-30A; CTC Analytics HTC PAL System. Mass spectrometric analysis was performed using a Triple Quad™ 5500 instrument.
All calculations were carried out using Microsoft Excel. Peak area ratios of test compound to internal standard (listed in the below table) were determined from extracted ion chromatograms.
All calculations were carried out using Microsoft Excel. Peak areas were determined from extracted ion chromatograms. The slope value, k, was determined by linear regression of the natural logarithm of the remaining percentage of the parent drug vs. incubation time curve.
The in vitro half-life (in vitro t1/2) was determined from the slope value:
Conversion of the in vitro t1/2 (min) into the in vitro intrinsic clearance (in vitro CLint, in μL/min/mg proteins) was done using the following equation (mean of duplicate determinations): […]
The objective of this study was to estimate in vitro metabolic stability of exemplary compounds of Formula (I) or a pharmaceutically acceptable salt, solvate and/or prodrug thereof in pooled human, male rat and male mouse liver microsomes. The concentrations of compounds in reaction systems were evaluated by LC-MS/MS for estimating the stability in pooled human, male rat and male mouse liver microsomes. The in vitro intrinsic clearances of test compounds were determined as well.
A master solution in the “Incubation Plate” containing phosphate buffer, ultra-pure H2O, MgCl2 solution and liver microsomes was made according to Table 67. The mixture was pre-warmed at 37° C. water bath for 5 minutes.
40 μL of 10 mM NADPH solution was added to each well. The final concentration of NADPH was 1 mM. The negative control samples were prepared by replacing NADPH with 40 μL of ultra-pure H2O. Samples were prepared in duplicate. Negative controls were prepared in singlet
Aliquots of 50 μL were taken from the reaction solution at 0, 15, 30, 45 and 60 minutes. The reaction solutions were stopped by the addition of 4 volumes of cold methanol with IS (100 nM alprazolam, 200 nM imipramine, 200 nM labetalol and 2 μM ketoprofen). […]

Setting [3] is: PAM mode: pre-incubation with sample, then agonist at EC20, HEK293 cells, read-out: EC50.
Where [4] appears, read: rat liver microsomes, 2 μM compound, 0.5 mg/mL microsomes.
Setting [5] is: rat liver microsomes, With Cofactors, 0 min.
Where [6] appears, read: rat liver microsomes, With Cofactors, 30 min.
Setting [7] is: rat liver microsomes, With Cofactors, 60 min.
The mark [8] stands for this setting: rat liver microsomes, Without Cofactors, 0 min.
Where [9] appears, read: rat liver microsomes, Without Cofactors, 30 min.
Setting [10] is: rat liver microsomes, Without Cofactors, 60 min.
Setting [11] is: Rat liver microsomes, 2 μM, 0.5 mg/mL, NADPH.

human 5-HT2B receptor, sequence (P41595 whole entry): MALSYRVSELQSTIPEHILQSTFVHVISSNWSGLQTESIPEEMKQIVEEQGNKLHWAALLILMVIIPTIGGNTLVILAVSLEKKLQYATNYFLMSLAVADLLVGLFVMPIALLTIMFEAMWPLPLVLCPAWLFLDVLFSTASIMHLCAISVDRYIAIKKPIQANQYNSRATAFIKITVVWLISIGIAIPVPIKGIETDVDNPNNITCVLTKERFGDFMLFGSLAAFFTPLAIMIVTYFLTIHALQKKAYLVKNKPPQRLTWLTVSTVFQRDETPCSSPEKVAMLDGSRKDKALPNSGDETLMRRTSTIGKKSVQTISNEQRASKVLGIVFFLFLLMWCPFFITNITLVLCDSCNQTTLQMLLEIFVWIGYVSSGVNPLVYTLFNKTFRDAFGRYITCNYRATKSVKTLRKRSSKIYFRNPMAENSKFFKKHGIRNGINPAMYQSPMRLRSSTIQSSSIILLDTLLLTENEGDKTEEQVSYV

Turning to `[2H]C([2H])(c1c[nH]c2ccc(OCCCCCN3C(=O)[C@H]4CCCC[C@H]4C3=O)cc12)[C@H]1CCCN1C([2H])([2H])[2H]` [Cis (R) I-248, 2-(5-((3-(((R)-1-(Methyl-d3)pyrrolidin-2-yl)methyl-d2)-1H-indol-5-yl)oxy)pentyl)hexahydro-1H-isoindole-1,3(2H)-dione], the “Emax (% of serotonin)” value in data set [1] (HEK293 cells) is recorded as 7.97 % of serotonin. The half-maximal effective concentration (EC50) in data set [1] (setting [3]) is > 10 µM.

For the compound `[2H]C([2H])(c1c[nH]c2ccc(OCCCCN3C(=O)c4ccccc4C3=O)cc12)[C@H]1CCCN1C([2H])([2H])[2H]` [(R) I-244, (R)-2-(4-((3-((1-(Methyl-d3)pyrrolidin-2-yl)methyl-d2)-1H-indol-5-yl)oxy)butyl)isoindoline-1,3-dione], in data set [1] (HEK293 cells), the “Emax (% of serotonin)” value is given as 26.89 % of serotonin. Moreover, the concentration for a half-maximal effect (EC50) in data set [1] (setting [3]) was 0.0974 µM. This compound registered a half-life at 2 μM in data set [2] (setting [4]) of 6.89 min. In data set [2] (setting [4]), the microsomal CLint at 2 μM worked out at 201 µL/min/mg. Also, the CLint scaled at 2 μM in data set [2] (rat liver microsomes) was found to be 360 mL/min/kg. Besides, the “Predicted hepatic CL” value in data set [2] (rat liver microsomes) is reported as 47.87 mL/min/kg. Further, the “Remaining Percentage” value turned out to be 100.00% in data set [2] (setting [5]); 4.90% in data set [2] (setting [6]); 0.57% in data set [2] (setting [7]); 100.00% in data set [2] (setting [8]); 94.87% in data set [2] (setting [9]); 87.40% in data set [2] (setting [10]).

Take `CSc1ccc2[nH]cc(C[C@H]3CCCN3C)c2c1` [(R) I-1, (R)-3-((1-Methylpyrrolidin-2-yl)methyl)-5-(methylthio)-1H-indole]: the EC50 in data set [1] is > 10 µM. Further, the “Emax (% of serotonin)” value in data set [1] (HEK293 cells) is given as 0 % of serotonin. For the same compound, the “Predicted hepatic CL” value in data set [2] (Rat liver microsomes) is 44.80 mL/min/kg. Besides, the “Remaining Percentage (%) 0 min” value in data set [2] (Rat liver microsomes, With Cofactors, 0 min) is listed as 100.00%; in data set [2] (Rat liver microsomes, Without Cofactors, 0 min), 100.00%. Also, the “Remaining Percentage (%) 30 min” value in data set [2] (Rat liver microsomes, With Cofactors, 30 min) was 13.67%; in data set [2] (Rat liver microsomes, Without Cofactors, 30 min), 93.44%. The “Remaining Percentage (%) 60 min” value in data set [2] (Rat liver microsomes, With Cofactors, 60 min) came out at 0.44%; in data set [2] (Rat liver microsomes, Without Cofactors, 60 min) it was 95.17%. This compound also yielded a half-life at 2 μM in data set [2] (setting [11]) of 10.4 min. Besides, the intrinsic metabolic clearance (microsomal CLint) at 2 μM in data set [2] (setting [11]) turned out to be 133 µL/min/mg. Moreover, the CLint scaled at 2 μM in data set [2] (Rat liver microsomes) stood at 238 mL/min/kg.

With `[2H]C([2H])(c1c[nH]c2ccc(OCCCCCN3C(=O)c4ccccc4C3=O)cc12)[C@H]1CCCN1C([2H])([2H])[2H]` [(R) I-245, (R)-2-(5-((3-((1-(Methyl-d3)pyrrolidin-2-yl)methyl-d2)-1H-indol-5-yl)oxy)pentyl)isoindoline-1,3-dione], the “Emax (% of serotonin)” value in data set [1] (HEK293 cells) is recorded as 0 % of serotonin. Besides, the EC50 in data set [1] (setting [3]) was > 3.33 µM. Besides, the half-life at 2 μM in data set [2] (setting [4]) is < 4.51 min. In data set [2] (setting [4]), the intrinsic metabolic clearance (microsomal CLint) at 2 μM is > 307 µL/min/mg. For the same compound, in data set [2] (rat liver microsomes), the CLint scaled at 2 μM was > 550 mL/min/kg. Also, the “Predicted hepatic CL” value in data set [2] (rat liver microsomes) is given as >50.17 mL/min/kg. In addition, the “Remaining Percentage” value is listed as 100.00% in data set [2] (setting [5]); 0.62% in data set [2] (setting [6]); 0.00% in data set [2] (setting [7]); 100.00% in data set [2] (setting [8]); 95.83% in data set [2] (setting [9]); 94.10% in data set [2] (setting [10]).

On to `[2H]C([2H])(c1c[nH]c2ccc(OCCCCCN3C(=O)C4CCCCC4C3=O)cc12)[C@H]1CCCN1C([2H])([2H])[2H]` (mixture of isomers) [Rac (R) I-248], for which the half-life at 2 μM in data set [2] (setting [4]) is < 4.51 min. Moreover, the microsomal CLint at 2 μM in data set [2] (setting [4]) was > 307 µL/min/mg. In addition, the CLint scaled at 2 μM in data set [2] (rat liver microsomes) is > 550 mL/min/kg. For the same compound, the “Predicted hepatic CL” value in data set [2] (rat liver microsomes) is on record as >50.17 mL/min/kg. Moreover, the “Remaining Percentage” value came out at 100.00% in data set [2] (setting [5]); 0.95% in data set [2] (setting [6]); 0.19% in data set [2] (setting [7]); 100.00% in data set [2] (setting [8]); 94.04% in data set [2] (setting [9]); 94.04% in data set [2] (setting [10]).

Take `COCCN1CCC[C@@H]1Cc1c[nH]c2ccc(OC)cc12` [(R) I-98, (R)-5-Methoxy-3-((1-(2-methoxyethyl)pyrrolidin-2-yl)methyl)-1H-indole]: the “Emax (% of serotonin)” value in data set [1] (HEK293 cells) is 0 % of serotonin. The EC50 in data set [1] (setting [3]) is > 10 µM. Besides, the half-life at 2 μM in data set [2] (setting [4]) was determined as 10 min. In data set [2] (setting [4]), this compound came in with an intrinsic metabolic clearance (microsomal CLint) at 2 μM of 138 µL/min/mg. The CLint scaled at 2 μM in data set [2] (rat liver microsomes) is 248 mL/min/kg. Moreover, the “Predicted hepatic CL” value in data set [2] (rat liver microsomes) was 45.13 mL/min/kg. For the same compound, the “Remaining Percentage” value in data set [2] (setting [6]) was 100.00%; in data set [2] (setting [7]) it was 14.43%; in data set [2] (setting [9]), 100.00%; in data set [2] (setting [10]) it was 103.23%.
